Consider nine compounds from US11390606B2, “Pyridazinone compounds and uses thereof” (Edgewise Therapeutics, Inc., priority 2018, dated 2022).

Experiment [1] concerns embryos from zebrafish model of DMD. The conditions noted are these: Li and Amer, PLoSONE, 2015; cited from earlier work.
Experiment [2] deals with T1, skeletal myofibrils (Rabbit Psoas), myosin ATPase activity.
T1 construct: Rabbit Psoas Prep 11 (0.25 mg/mL)
Description: Skeletal Myofibril ATPase Assay. The conditions noted are these: skeletal myofibrils (Rabbit Psoas 0.25 mg/mL), PK/LDH-coupled NADH absorbance at 340 nm. Type of experiment: biochemical. The gist of the method: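 PK-LDH coupled assay: ADP from myofibril ATPase drives NADH oxidation, read as A340 every 1.5-2 min over 45 min; rate taken as max−min absorbance. Normalized to 1% DMSO vehicle (100%) and fitted to a four-parameter logistic for IC50, bottom constrained ≥0. Buffer pH 7.0 (PIPES/CaCl2/EGTA).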

`Cc1ccc(S(=O)(=O)NCc2ccccc2)cc1` [BTS, N-benzyl-p-tolyl-sulfonamide]: the “protection of muscles from pathological muscle derangement” value in experiment [1] was “protect muscles from pathological muscle derangement”.

With `Cc1ccccc1Cn1nc(-c2ccc(Cl)cc2)ccc1=O` [Compound 308, 6-(4-chlorophenyl)-2-(2-methylbenzyl)pyridazin-3(2H)-one], the IC50 (commonly the midpoint of a concentration-inhibition curve) in experiment [2] was below 10 µM.

With `COc1ccc(Cn2nc(-c3ccc(Cl)cc3)ccc2=O)cc1` [Compound 235, 6-(4-chlorophenyl)-2-(4-methoxybenzyl)pyridazin-3(2H)-one], the IC50 in experiment [2] was below 10 µM.

With `COc1ccc(-c2ccc(=O)n(Cc3ccc(Cl)cc3)n2)cn1` [Compound 17, 2-(4-chlorobenzyl)-6-(6-methoxypyridin-3-yl)pyridazin-3(2H)-one], the IC50 in experiment [2] is below 10 µM.

Regarding `O=c1ccc(-c2cnc(OCC(F)(F)F)nc2)nn1Cc1ccccc1F` [Compound 36, 2-(2-fluorobenzyl)-6-(2-(2,2,2-trifluoroethoxy)pyrimidin-5-yl)pyridazin-3(2H)-one], the IC50 in experiment [2] was below 10 µM.

Take `O=c1ccc(-c2ccc(OCC(F)(F)F)cc2)nn1Cc1ccc(Cl)cc1` [Compound 101, 2-(4-chlorobenzyl)-6-(4-(2,2,2-trifluoroethoxy)phenyl)pyridazin-3(2H)-one]: in experiment [2], the IC50 is below 10 µM.

In experiment [2], `CN(C)S(=O)(=O)c1ccc(Cn2nc(-c3ccc(OC(F)F)cc3)ccc2=O)cc1` [Compound 118, 4-((3-(4-(difluoromethoxy)phenyl)-6-oxopyridazin-1(6H)-yl)methyl)-N,N-dimethyl-benzenesulfonamide] registered an IC50 above 100 µM.

`CNc1ncc(-c2ccc(=O)n(Cc3ccc(Cl)cc3)n2)cn1` [Compound 12, 2-(4-chlorobenzyl)-6-(2-(methylamino)pyrimidin-5-yl)pyridazin-3(2H)-one] displayed an IC50 in experiment [2] below 10 µM.

`O=c1ccc(-c2cnc(OCC(F)(F)F)nc2)nn1Cc1cccc(Cl)c1` [Compound 34, 2-(3-chlorobenzyl)-6-(2-(2,2,2-trifluoroethoxy)pyrimidin-5-yl)pyridazin-3(2H)-one] yielded an IC50 in experiment [2] below 10 µM.
